From patent publication US5053424A, “2-(N-acyl)amino-6,7-dimethoxy tetralines, and pharmaceutical compositions having antihypertensive activity containing same” (Sigma-Tau Industrie Farmaceutiche Riunite S.p.A., priority 1989, dated 1991)
Structures can show the parent of a compound that is named as a salt. Where two headings read alike, the source gives them in different places.

Legend:
Tolerability in mice = experiment: Tolerability in mice; set-up: species or system mice (male albino Swiss); details: mouse, in vivo, read-out: TOLERABILITY dose
Procedure: Male albino Swiss mice weighing 22-24 g were used in this test.
One group of animals (4/dose) which had been kept fasting for 18 hours was orally administered the compounds dissolved in twice distilled water. The same compounds dissolved in saline at pH=7 were intravenously injected in a further group of animals which had free access to food and drinking water. All of the animals were monitored for 7 days.

[1] = LD50 in mice (Weil's method); details: mouse, in vivo; intravenous route, male Albino Swiss mice
Procedure: LD50 was assessed according to the Carrol S. WEIL's method (Biometrics, pages […] (1952)) on male Albino Swiss mice weighing 22-24 g. The compounds dissolved in […] saline solution were administered via the intravenous route.

Normotensive cats = experiment: Measure of arterial pressure in cats (hypotensive effect in normotensive cats); format: in vivo; details: via crural vein; as to EFFECT DURATION (hypotension in normotensive cats): key: S: short; A: average; L: long
Procedure: (a) Measure of arterial pressure in cats.
Normotensive cats of either sex weighing 2.5-3.5 kgs were used in this test.
The animals fasted for 18 hours were anesthetized with Na Nembutal (30 mg/kg) and ethyl urethane (300 mg/kg i.p.). The crural vein and artery of the animals were cannulated, the former for administering the compounds, the latter for monitoring the arterial pressure. The arterial pressure was measured via a mercury gauge connected to a rotating kymograph.
The compounds were dissolved in sterile 0.9% saline and administered at physiological pH in a 0.5 ml/kg volume.

SHR hypertensive rats = experiment: Non-invasive measure of arterial pressure in genetically hypertensive rats (SHR); format: in vivo, rats (male SHR)
Procedure: (b) Non-invasive measure of arterial pressure in genetically hypertensive rats.
Male SHR rats (Charles River) of 3-4 months were used in this test. The compounds listed were dissolved in either 0.9% saline or twice distilled water and administered via the oral route or i.p. (50-100 mg/5 ml/kg).
The animals, housed in individual cages at 23° C. and 60% humidity, had free access to food and drinking water. A BP recorder (Letica) equipped with a two-way polygraph was used. The systolic and diastolic pressure and the heart rate were recorded. The animals, a few days before the test began, were accustomed to be constrained on a heating plate (at 38° C.±1° C.) for 20 minutes).
During the pre-tests, the assessments were made at time 0 (8^30 -9^30 a.m.) and after 1, 2 and 4 hours.
Every assessment was the average of 3 measures and the maximum residence time of the animal in the thermostatized chamber (for the whole test duration) was 40 minutes.
Student's "t" test was used for assessing the difference with respect to the control group and its own 0 time.

[2] = iv, e.p. (head), intravenously injected in saline pH 7, monitored 7 days
[3] = os (oral), fasted mice, monitored 7 days

| Compound | MTD at 168 h (Tolerability in mice; [2]) | MTD at 168 h (Tolerability in mice; [3]) | LD50 [1] | HYPOTENSIVE EFFECT IN NORMOTENSIVE CATS, hypotension (Normotensive cats; dose 1-4 mg/kg) | EFFECT DURATION (hypotension in normotensive cats) (Normotensive cats; dose 2 mg/kg) | other results |
| --- | --- | --- | --- | --- | --- | --- |
| COc1cc2c(cc1OC)CC(NC(=O)C(N)Cc1c[nH]c3ccccc13)CC2 (stereo not shown) [ST 580, 2-N-tryptophylamino-6,7-dimethoxy tetraline hydrochloride] | > 50 mg/kg | > 50 mg/kg | 66.7 mg/kg | 0 mm Hg | – | – |
| COc1cc2c(cc1OC)CC(NC(=O)C(N)CCSC)CC2 (stereo not shown) [ST 581, 2-N-methionylamino-6,7-dimethoxy tetraline hydrochloride] | > 50 mg/kg | > 50 mg/kg | 74 mg/kg | 0 mm Hg | – | – |
| COc1cc2c(cc1OC)CC(NC(=O)CN)CC2 (stereo not shown) [ST 582, 2-N-glycylamino-6,7-dimethoxy tetraline hydrochloride] | > 50 mg/kg | > 50 mg/kg | 72.3 mg/kg | – | – | EFFECT DURATION (hypotension in normotensive cats) (Normotensive cats; dose 10 mg/kg): S; ANTIHYPERTENSIVE EFFECT IN SHR HYPERTENSIVE RATS (SHR hypertensive rats; 50 mg/kg i.p., 1st h): -37 mm Hg; ANTIHYPERTENSIVE EFFECT IN SHR HYPERTENSIVE RATS (SHR hypertensive rats; 50 mg/kg i.p., 2nd h): -27 mm Hg; ANTIHYPERTENSIVE EFFECT IN SHR HYPERTENSIVE RATS (SHR hypertensive rats; 50 mg/kg i.p., 4th h): 0 mm Hg |
| COc1cc2c(cc1OC)CC(NC(=O)[C@H](C)NC(=O)[C@@H](N)CC(C)C)CC2.Cl (stereo partly shown) [ST 584, 2-(N-leucylalanyl)amino-6,7-dimethoxy tetraline hydrochloride] | > 50 mg/kg | > 50 mg/kg | 167 mg/kg | – | – | ANTIHYPERTENSIVE EFFECT IN SHR HYPERTENSIVE RATS (SHR hypertensive rats; dose "10C" [sic] mg/kg os, 1st h): -12 mm Hg; ANTIHYPERTENSIVE EFFECT IN SHR HYPERTENSIVE RATS (SHR hypertensive rats; dose "10C" [sic] mg/kg os, 2nd h): 0 mm Hg; ANTIHYPERTENSIVE EFFECT IN SHR HYPERTENSIVE RATS (SHR hypertensive rats; dose "10C" [sic] mg/kg os, 4th h): 0 mm Hg |
| COc1cc2c(cc1OC)CC(NC(=O)[C@H](C)NC(=O)[C@@H](N)Cc1c[nH]c3ccccc13)CC2 (stereo partly shown) [ST 585, 2-(N-tryptophylalanyl)amino-6,7-dimethoxy tetraline hydrochloride] | > 50 mg/kg | > 50 mg/kg | 115 mg/kg | – | – | HYPOTENSIVE EFFECT IN NORMOTENSIVE CATS, hypotension (Normotensive cats; dose 4 mg/kg): 0 mm Hg; EFFECT DURATION (hypotension in normotensive cats) (Normotensive cats; dose 10 mg/kg): S |
| COc1cc2c(cc1OC)CC(NC(=O)[C@H](C)NC(=O)[C@@H](N)CCSC)CC2.Cl (stereo partly shown) [ST 586, 2-(N-methionylalanyl)amino-6,7-dimethoxy tetraline hydrochloride] | > 50 mg/kg | > 50 mg/kg | 229 mg/kg | – | – | HYPOTENSIVE EFFECT IN NORMOTENSIVE CATS, hypotension (Normotensive cats; dose 2 mg/kg): 0 mm Hg; EFFECT DURATION (hypotension in normotensive cats) (Normotensive cats; dose 4 mg/kg): S |
| COc1cc2c(cc1OC)CC(NC(=O)C(N)Cc1ccc(O)cc1)CC2 (stereo not shown) [ST 589, 2-N-tyrosyl-6,7-dimethoxy tetraline hydrochloride] | > 50 mg/kg | > 50 mg/kg | 218 mg/kg | – | S | EFFECT DURATION (hypotension in normotensive cats) (Normotensive cats; dose 1 mg/kg): S; ANTIHYPERTENSIVE EFFECT IN SHR HYPERTENSIVE RATS (SHR hypertensive rats; 100 mg/kg os, 1st h): -26 mm Hg; ANTIHYPERTENSIVE EFFECT IN SHR HYPERTENSIVE RATS (SHR hypertensive rats; 100 mg/kg os, 2nd h): -20 mm Hg; ANTIHYPERTENSIVE EFFECT IN SHR HYPERTENSIVE RATS (SHR hypertensive rats; 100 mg/kg os, 4th h): 0 mm Hg |
| CCN(C(=O)[C@H](C)NC(=O)[C@@H](N)Cc1c[nH]c2ccccc12)C1CCc2cc(OC)c(OC)cc2C1 (stereo partly shown) [ST 604, 2-(N-ethyl,N-tryptophylalanyl)amino-6,7-dimethoxy tetraline hydrochloride] | > 50 mg/kg | > 50 mg/kg | 85 mg/kg | 0 mm Hg | – | – |
| COc1cc2c(cc1OC)CC(NC(=O)[C@H](C)NC(=O)[C@@H](N)Cc1ccc(O)cc1)CC2.Cl (stereo partly shown) [ST 605, 2-(N-tyrosylalanyl)amino-6,7-dimethoxy tetraline hydrochloride] | > 50 mg/kg | > 50 mg/kg | 72.3 mg/kg | – | S | HYPOTENSIVE EFFECT IN NORMOTENSIVE CATS, hypotension (Normotensive cats; dose 1 mg/kg): 0 mm Hg; ANTIHYPERTENSIVE EFFECT IN SHR HYPERTENSIVE RATS (SHR hypertensive rats; 100 mg/kg e.p., 1st h): -40 mm Hg; ANTIHYPERTENSIVE EFFECT IN SHR HYPERTENSIVE RATS (SHR hypertensive rats; 100 mg/kg e.p., 2nd h): -38 mm Hg; ANTIHYPERTENSIVE EFFECT IN SHR HYPERTENSIVE RATS (SHR hypertensive rats; 100 mg/kg e.p., 4th h): -29 mm Hg; ANTIHYPERTENSIVE EFFECT IN SHR HYPERTENSIVE RATS (SHR hypertensive rats; 100 mg/kg os, single administration (*), 2nd h): -28 mm Hg; ANTIHYPERTENSIVE EFFECT IN SHR HYPERTENSIVE RATS (SHR hypertensive rats; 100 mg/kg os, single administration (*), 4th h): -31 mm Hg; ANTIHYPERTENSIVE EFFECT IN SHR HYPERTENSIVE RATS (SHR hypertensive rats; repeated administration (5 days) (**), dose column "--" below 100 os, 2nd h): -35 mm Hg; ANTIHYPERTENSIVE EFFECT IN SHR HYPERTENSIVE RATS (SHR hypertensive rats; repeated administration (5 days) (**), dose column "--" below 100 os, 4th h): -17 mm Hg |
| CCN(C(=O)[C@H](C)NC(=O)[C@@H](N)CCSC)C1CCc2cc(OC)c(OC)cc2C1 (stereo partly shown) [ST 606, 2-(N-ethyl,N-methionylalanyl)amino-6,7-dimethoxy tetraline hydrochloride] | > 50 mg/kg | > 50 mg/kg | 150 mg/kg | – | S | EFFECT DURATION (hypotension in normotensive cats) (Normotensive cats; dose 1 mg/kg): S; EFFECT DURATION (hypotension in normotensive cats) (Normotensive cats; dose 4 mg/kg): S |
